Measured values taken from PMC7782793, “Hydroxamic acid-modified peptide microarrays for profiling isozyme-selective interactions and inhibition of histone deacetylases” (Nature Communications, 2021).
Values joined by “and” are separate entries in the source; they are usually repeats but may differ in a detail not shown here. Identical values can stand only once. Marks after values point to notes of the source that are not given here. Non-standard residues stand in square brackets, D forms with d. Residues, ends and D or L forms follow the SMILES beside them. *: point of attachment. Asu = N[C@@H](CCCCCC(=O)O)C(=O)O; NHOH = ON*

Columns and labels:
HDAC3/NCoR2 [1] = target: T1, HDAC3/NCoR2 (Homo sapiens, UniProt O15379); experiment: HDAC inhibition assay (fluorogenic, Ac-Leu-Gly-Lys(Ac)-AMC); assay type: biochemical; conditions: duplicate columns
T1 construct: HDAC3/NCoR2 (full length, C-terminal His tag, NCoR2 N-terminal GST tag); purchased BPS Bioscience 50003
T1 sequence (O15379 whole entry): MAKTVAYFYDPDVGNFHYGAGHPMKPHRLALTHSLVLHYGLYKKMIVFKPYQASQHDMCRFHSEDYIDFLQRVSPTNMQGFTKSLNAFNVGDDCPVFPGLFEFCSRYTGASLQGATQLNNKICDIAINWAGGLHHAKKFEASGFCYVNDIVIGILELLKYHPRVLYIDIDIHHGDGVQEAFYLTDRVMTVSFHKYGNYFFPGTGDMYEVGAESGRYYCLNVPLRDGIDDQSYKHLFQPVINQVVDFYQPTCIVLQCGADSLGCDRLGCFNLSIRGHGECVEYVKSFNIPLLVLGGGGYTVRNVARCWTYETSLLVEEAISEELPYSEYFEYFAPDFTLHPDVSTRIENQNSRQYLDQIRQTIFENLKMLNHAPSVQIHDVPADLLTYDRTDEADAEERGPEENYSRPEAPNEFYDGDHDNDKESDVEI
T1 sequence (Q9Y618 389-480 partner limits assumed): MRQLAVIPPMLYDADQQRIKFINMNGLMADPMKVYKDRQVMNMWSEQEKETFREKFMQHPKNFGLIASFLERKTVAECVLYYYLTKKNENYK

HDAC2 [2] = target: T2, HDAC2 (Homo sapiens, UniProt Q92769); experiment: Recombinant HDAC µSPOT microarray binding assay;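 further: Cellulose-bound peptide spots on slides incubated with six HDAC enzyme concentrations, binding intensity read, four-parameter variable-slope fit, EC50 is enzyme concentration giving half-maximal binding, in HEPES buffer pH 7.4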
T2 construct: HDAC2 (full length, C-terminal His tag, BPS Bioscience, cat. #: 50002); purchased BPS Bioscience 50002
T2 sequence (Q92769 whole entry): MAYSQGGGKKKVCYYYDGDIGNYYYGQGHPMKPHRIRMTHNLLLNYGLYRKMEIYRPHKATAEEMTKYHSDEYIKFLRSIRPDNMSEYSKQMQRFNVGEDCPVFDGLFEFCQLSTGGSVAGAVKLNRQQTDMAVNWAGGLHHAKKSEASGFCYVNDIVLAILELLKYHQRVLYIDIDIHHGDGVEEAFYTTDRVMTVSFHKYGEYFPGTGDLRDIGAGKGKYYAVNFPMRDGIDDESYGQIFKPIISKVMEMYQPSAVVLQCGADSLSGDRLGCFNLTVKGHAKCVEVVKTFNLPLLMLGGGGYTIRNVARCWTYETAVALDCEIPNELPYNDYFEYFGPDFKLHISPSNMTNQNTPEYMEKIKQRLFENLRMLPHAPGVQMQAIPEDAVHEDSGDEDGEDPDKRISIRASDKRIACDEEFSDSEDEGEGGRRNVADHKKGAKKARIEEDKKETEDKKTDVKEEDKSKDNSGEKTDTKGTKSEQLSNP

HDAC1 [3] = target: T3, HDAC1 (Homo sapiens, UniProt Q13547); experiment: Recombinant HDAC µSPOT microarray binding assay;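 further: slides with spotted peptides incubated with six HDAC concentrations in HEPES buffer pH 7.4, spot intensities fitted by four-parameter logistic, EC50 as enzyme concentration giving half-maximal binding signal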
T3 construct: HDAC1 (full length, C-terminal His tag, C-terminal FLAG tag, BPS Bioscience, cat. #: 50051); FLAG (C); purchased BPS Bioscience 50051
T3 sequence (Q13547 whole entry): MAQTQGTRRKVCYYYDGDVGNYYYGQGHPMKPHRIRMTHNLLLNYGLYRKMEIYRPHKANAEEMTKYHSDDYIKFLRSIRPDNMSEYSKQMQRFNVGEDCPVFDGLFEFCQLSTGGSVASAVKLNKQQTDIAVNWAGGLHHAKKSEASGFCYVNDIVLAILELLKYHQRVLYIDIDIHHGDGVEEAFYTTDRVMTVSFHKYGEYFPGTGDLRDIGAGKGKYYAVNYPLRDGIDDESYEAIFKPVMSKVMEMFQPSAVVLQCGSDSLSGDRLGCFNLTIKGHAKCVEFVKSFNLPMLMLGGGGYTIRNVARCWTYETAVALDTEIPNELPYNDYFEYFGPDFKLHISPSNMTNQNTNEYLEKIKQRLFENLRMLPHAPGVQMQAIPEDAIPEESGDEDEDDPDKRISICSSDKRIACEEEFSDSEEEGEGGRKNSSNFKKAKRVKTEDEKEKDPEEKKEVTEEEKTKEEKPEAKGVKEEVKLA
Method: Experiments were performed twice, data were obtained with Array Analyze software (Active Motif), and data analysis and representation were performed with the GraphPad Prism 7 software. Outliers were curated manually and data were fitted to nonlinear regression [log(agonist) vs. response—variable slope (four parameters)]. […] Non-sigmoidal curves were denoted as not determined (N.D.) The pEC50 values were determined as the concentration of HDAC enzyme required for half-maximal binding signal.

HDAC3/NCoR2 [4] = target: T1, HDAC3/NCoR2; experiment: Recombinant HDAC µSPOT microarray binding assay;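 further: peptide spots on cellulose slides incubated with rising HDAC enzyme concentrations, imaged together, four-parameter logistic fit, EC50 is enzyme concentration giving half-maximal binding signal, two experiments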
HDAC2 [5] = target: T2, HDAC2; experiment: HDAC inhibition assay (fluorogenic, Ac-Leu-Gly-Lys(Ac)-AMC); assay type: biochemical; conditions: for HDAC2 dose-response data (relative enzyme activity), Fig. 6 + S. Fig. 10: duplicate columns
HDAC1 [6] = target: T3, HDAC1; experiment: as above; assay type: biochemical; conditions: for HDAC1 dose-response data (relative enzyme activity), Fig. 6 + S. Fig. 10: duplicate columns
[7] = log[inhibitor(M)] -10,5850266520292*, whole line marked with asterisks

## CC[C@H](C)[C@H](NC(=O)[C@@H](NC(=O)[C@H](CC(N)=O)NC(C)=O)C(C)C)C(=O)N[C@@H](CCCNC(=N)N)C(=O)N[C@@H](CC(=O)O)C(=O)N[C@@H](C)C(=O)N[C@H](C(=O)N[C@H](C(=O)N[C@@H](Cc1ccc(O)cc1)C(=O)N[C@H](C(=O)N[C@@H](CCC(=O)O)C(=O)N[C@@H](Cc1c[nH]cn1)C(=O)N[C@@H](C)C(=O)N[C@@H](CCCCCC(=O)NO)C(=O)N[C@@H](CCCNC(=N)N)C(=O)N[C@@H](CCCCN)C(=O)N[C@@H](Cc1c[nH]c2ccccc12)C(N)=O)[C@@H](C)O)[C@@H](C)O)C(C)C [17a] (Ac-NVIRDAVTYTEHA[Asu](NHOH)RKW-NH2)
HDAC3/NCoR2 [1]; log[inhibitor(M)] -6.39794
  HDAC3 dose-response data (relative enzyme activity), Fig. 6 + S. Fig. 10: 47.71 and 47.78
HDAC3/NCoR2 [1]; log[inhibitor(M)] -7.09691
  HDAC3 dose-response data (relative enzyme activity), Fig. 6 + S. Fig. 10: 75.88 and 76.54
HDAC3/NCoR2 [1]; log[inhibitor(M)] -7.79588
  HDAC3 dose-response data (relative enzyme activity), Fig. 6 + S. Fig. 10: 91.62 and 91.95
HDAC3/NCoR2 [1]; log[inhibitor(M)] -8.49485
  HDAC3 dose-response data (relative enzyme activity), Fig. 6 + S. Fig. 10: 95.02 and 96.22
HDAC3/NCoR2 [1]; log[inhibitor(M)] -9.19382
  HDAC3 dose-response data (relative enzyme activity), Fig. 6 + S. Fig. 10: 95.35 and 97.08
HDAC3/NCoR2 [1]; log[inhibitor(M)] -9.89279
  HDAC3 dose-response data (relative enzyme activity), Fig. 6 + S. Fig. 10: 93.78 and 97.79
HDAC3/NCoR2 [1]; [7]
  HDAC3 dose-response data (relative enzyme activity), Fig. 6 + S. Fig. 10: 97,93* and 99,33*
HDAC2 [2]
  EC50: 2 nM
HDAC1 [3]
  EC50: > 25.1 nM
HDAC3/NCoR2 [4]
  EC50: 3.16 nM
HDAC2 [5]; log[inhibitor(M)] -5
  HDAC2 dose-response data (relative enzyme activity), Fig. 6 + S. Fig. 10: 11.53 and 14.13
HDAC2 [5]; log[inhibitor(M)] -5.69897
  HDAC2 dose-response data (relative enzyme activity), Fig. 6 + S. Fig. 10: 38.85 and 44.3
HDAC2 [5]; log[inhibitor(M)] -7.79588
  HDAC2 dose-response data (relative enzyme activity), Fig. 6 + S. Fig. 10: 99.37 and 102.1
HDAC2 [5]; [7]
  HDAC2 dose-response data (relative enzyme activity), Fig. 6 + S. Fig. 10: 100,76* and 101,65*
HDAC2 [5]; resynthesized peptide in solution, Cheng-Prusoff, n = 2
  Ki: 183 ± 1 nM
HDAC1 [6]
  Ki: 198 ± 1 nM
HDAC1 [6]; log[inhibitor(M)] -4.30103
  HDAC1 dose-response data (relative enzyme activity), Fig. 6 + S. Fig. 10: 2.18 and 2.15
HDAC1 [6]; log[inhibitor(M)] -5
  HDAC1 dose-response data (relative enzyme activity), Fig. 6 + S. Fig. 10: 8.98 and 8.99
HDAC1 [6]; log[inhibitor(M)] -5.69897
  HDAC1 dose-response data (relative enzyme activity), Fig. 6 + S. Fig. 10: 31.34 and 30.75
HDAC1 [6]; log[inhibitor(M)] -6.39794
  HDAC1 dose-response data (relative enzyme activity), Fig. 6 + S. Fig. 10: 69.51 and 67.92
HDAC1 [6]; log[inhibitor(M)] -7.09691
  HDAC1 dose-response data (relative enzyme activity), Fig. 6 + S. Fig. 10: 91.81 and 91.08
HDAC1 [6]; log[inhibitor(M)] -7.79588
  HDAC1 dose-response data (relative enzyme activity), Fig. 6 + S. Fig. 10: 100.43 and 97.85
HDAC1 [6]; log[inhibitor(M)] -8.49485
  HDAC1 dose-response data (relative enzyme activity), Fig. 6 + S. Fig. 10: 101.87 and 100.28
HDAC1 [6]; log[inhibitor(M)] -9.19382
  HDAC1 dose-response data (relative enzyme activity), Fig. 6 + S. Fig. 10: 101.68 and 99.1
HDAC1 [6]; log[inhibitor(M)] -9.89279
  HDAC1 dose-response data (relative enzyme activity), Fig. 6 + S. Fig. 10: 102.02 and 100.95
HDAC1 [6]; [7]
  HDAC1 dose-response data (relative enzyme activity), Fig. 6 + S. Fig. 10: 100,29* and 101,16*
